Data set [1] is described as follows: The drug is tested on WLS-086 corresponding to human gut metagenome with ENA study accession number: PRJEB37062 and ENA sample accession number: ERS12561752 for biotransformation under anaerobic condition. The drug concentrations were measured over 9 timepoints collected between 0 and 24 hours of incubation by liquid-chromatography-coupled mass spectrometry (LC–MS). Conditions: 2 µM.

Data set [2] is described as follows: The drug is tested on Z-002 corresponding to rabbit gut metagenome with ENA study accession number: PRJEB37062 and ENA sample accession number: ERS12561802 for biotransformation under anaerobic condition. The drug concentrations were measured over 9 timepoints collected between 0 and 24 hours of incubation by liquid-chromatography-coupled mass spectrometry (LC–MS). Conditions: 2 µM.

The conditions of data set [3]: human gut metagenome, 24 h, 2 µM.
For data set [4] the following is noted: human gut metagenome, 24 h, 2 µM. The source holds these as a separate data set.
For data set [5] the following is noted: human gut metagenome, 24 h, 2 µM. This is another data set of the same source.
For data set [6] the following is noted: human gut metagenome, 24 h, 2 µM. This is another data set of the same source.
The conditions of data set [7]: human gut metagenome, 24 h, 2 µM. The source holds these as a separate data set.
For data set [8] the following is noted: human gut metagenome, 24 h, 2 µM. The source holds these as a separate data set.
The conditions of data set [9]: human gut metagenome, 24 h, 2 µM. This is another data set of the same source.
For data set [10] the following is noted: human gut metagenome, 24 h, 2 µM. This is another data set of the same source.
For data set [11] the following is noted: human gut metagenome, 24 h, 2 µM. This is another data set of the same source.
Data set [12] in a line: The drug is tested on WLS-027 corresponding to human gut metagenome with ENA study accession number: PRJEB37062 and ENA sample accession number: ERS12561744 for biotransformation under anaerobic condition. The drug concentrations were measured over 9 timepoints collected between 0 and 24 hours of incubation by liquid-chromatography-coupled mass spectrometry (LC–MS). As to conditions: 2 µM.

Data set [13] can be described thus: The drug is tested on Z-003 corresponding to pig gut metagenome with ENA study accession number: PRJEB37062 and ENA sample accession number: ERS12561803 for biotransformation under anaerobic condition. The drug concentrations were measured over 9 timepoints collected between 0 and 24 hours of incubation by liquid-chromatography-coupled mass spectrometry (LC–MS). As to conditions: 2 µM.

Data set [14] in a line: The drug is tested on WLS-038 corresponding to human gut metagenome with ENA study accession number: PRJEB37062 and ENA sample accession number: ERS12561745 for biotransformation under anaerobic condition. The drug concentrations were measured over 9 timepoints collected between 0 and 24 hours of incubation by liquid-chromatography-coupled mass spectrometry (LC–MS). Conditions: 2 µM.

Data set [15] is described as follows: The drug is tested on Z-028 corresponding to mouse gut metagenome with ENA study accession number: PRJEB37062 and ENA sample accession number: ERS12561827 for biotransformation under anaerobic condition. The drug concentrations were measured over 9 timepoints collected between 0 and 24 hours of incubation by liquid-chromatography-coupled mass spectrometry (LC–MS). As to conditions: 2 µM.

The nature of data set [16]: The drug is tested on Z-013 corresponding to rabbit gut metagenome with ENA study accession number: PRJEB37062 and ENA sample accession number: ERS12561813 for biotransformation under anaerobic condition. The drug concentrations were measured over 9 timepoints collected between 0 and 24 hours of incubation by liquid-chromatography-coupled mass spectrometry (LC–MS). As to conditions: 2 µM.

Data set [17] in a line: The drug is tested on Z-027 corresponding to metagenome with ENA study accession number: PRJEB37062 and ENA sample accession number: ERS12561826 for biotransformation under anaerobic condition. The drug concentrations were measured over 9 timepoints collected between 0 and 24 hours of incubation by liquid-chromatography-coupled mass spectrometry (LC–MS). As to conditions: 2 µM.

The nature of data set [18]: The drug is tested on Z-018 corresponding to pig gut metagenome with ENA study accession number: PRJEB37062 and ENA sample accession number: ERS12561817 for biotransformation under anaerobic condition. The drug concentrations were measured over 9 timepoints collected between 0 and 24 hours of incubation by liquid-chromatography-coupled mass spectrometry (LC–MS). Conditions: 2 µM.

A short description of data set [19]: The drug is tested on Z-010 corresponding to metagenome with ENA study accession number: PRJEB37062 and ENA sample accession number: ERS12561810 for biotransformation under anaerobic condition. The drug concentrations were measured over 9 timepoints collected between 0 and 24 hours of incubation by liquid-chromatography-coupled mass spectrometry (LC–MS). As to conditions: 2 µM.

For data set [20] the following is noted: human gut metagenome, 24 h, 2 µM. This is another data set of the same source.
Also: call rule not given here.

Take `N[C@@H](Cc1ccc(N(CCCl)CCCl)cc1)C(=O)O`: the “Bacterial Biotransformation” value in [1] is listed as “Compound metabolized”; in [2] it was “Compound metabolized”; in data set [3], “Compound NOT metabolized”; in data set [4], “Compound metabolized”; in data set [5], “Compound metabolized”; in data set [6], “Compound NOT metabolized”. Further, the “Bacterial Biotransformation” value in [7] is “Compound NOT metabolized”; in [8], “Compound metabolized”; in data set [9], “Compound metabolized”; in data set [10] it was “Compound NOT metabolized”; in data set [11], “Compound NOT metabolized”; in [12], “Compound metabolized”. Besides, the “Bacterial Biotransformation” value in data set [13] and in data set [14] was “Compound metabolized” each time.

As for `O=C1CCc2ccc(OCCCCN3CCN(c4cccc(Cl)c4Cl)CC3)cc2N1` [ARIPIPRAZOLE], the “Bacterial Biotransformation” value is “Compound NOT metabolized” in [2]; “Compound metabolized” in [15]; “Compound metabolized” in data set [16]; “Compound NOT metabolized” in data set [17]; “Compound metabolized” in data set [13]; “Compound metabolized” in data set [18]. The “Bacterial Biotransformation” value in data set [19] is on record as “Compound metabolized”.

On to `CC(=O)Oc1ccc(C(c2ccc(OC(C)=O)cc2)c2ccccn2)cc1` [BISACODYL], for which the “Bacterial Biotransformation” value in data set [1], in [20], in data set [3], in [4], in data set [5] and in data set [6] was “Compound metabolized” each time. Also, the “Bacterial Biotransformation” value in data set [7], in data set [8], in [9], in data set [10], in [11] and in data set [12] was “Compound metabolized” each time. The “Bacterial Biotransformation” value in data set [13] and in data set [14] was “Compound metabolized” throughout.

Regarding `N=C(N)NC(=O)Cc1c(Cl)cccc1Cl` [GUANFACINE], the “Bacterial Biotransformation” value in data set [1], in [20], in [2], in data set [3], in data set [4] and in data set [5] was “Compound NOT metabolized” throughout. Also, the “Bacterial Biotransformation” value in data set [6], in data set [7], in data set [8], in data set [15], in data set [16] and in data set [17] was “Compound NOT metabolized” throughout. For the same compound, the “Bacterial Biotransformation” value in [9], in [10], in data set [11], in [12], in data set [13] and in data set [19] was “Compound NOT metabolized” in each case. For the same compound, the “Bacterial Biotransformation” value in [14] is given as “Compound NOT metabolized”.

Regarding `C[C@]12C=CC(=O)C=C1CC[C@@H]1[C@@H]2C(=O)C[C@@]2(C)[C@H]1CC[C@]2(O)C(=O)CO` [PREDNISONE], the “Bacterial Biotransformation” value in data set [1], in [20], in data set [2], in data set [3], in data set [4] and in data set [6] was “Compound metabolized” throughout. The “Bacterial Biotransformation” value in [7] is on record as “Compound metabolized”; in data set [8] it was “Compound metabolized”; in data set [15], “Compound metabolized”; in data set [16], “Compound NOT metabolized”; in data set [17] it was “Compound NOT metabolized”; in data set [9], “Compound metabolized”. For the same compound, the “Bacterial Biotransformation” value in data set [10], in data set [11], in [12], in data set [13], in [18] and in data set [19] was “Compound metabolized” in each case. Also, the “Bacterial Biotransformation” value in data set [14] is “Compound metabolized”.

For `CNNCc1ccc(C(=O)NC(C)C)cc1` [PROCARBAZINE], the “Bacterial Biotransformation” value was “Compound metabolized” in data set [1]; “Compound metabolized” in data set [20]; “Compound NOT metabolized” in [3]; “Compound metabolized” in data set [4]; “Compound metabolized” in [5]; “Compound NOT metabolized” in data set [6]. Also, the “Bacterial Biotransformation” value in [7] is on record as “Compound NOT metabolized”; in [8], “Compound NOT metabolized”; in data set [15], “Compound metabolized”; in data set [16] it was “Compound metabolized”; in data set [9], “Compound metabolized”; in data set [10] it was “Compound metabolized”. The “Bacterial Biotransformation” value is recorded as “Compound metabolized” in data set [11], “Compound NOT metabolized” in [13] and “Compound NOT metabolized” in data set [14].

As to `CC(=O)SCC(Cc1ccccc1)C(=O)NCC(=O)OCc1ccccc1` (stereo not drawn) [RACECADOTRIL], the “Bacterial Biotransformation” value is listed as “Compound metabolized” in data set [2]; “Compound metabolized” in [15]; “Compound metabolized” in data set [16]; “Compound NOT metabolized” in data set [17]; “Compound metabolized” in data set [13]; “Compound metabolized” in data set [18]. In addition, the “Bacterial Biotransformation” value in [19] was “Compound metabolized”.

On to `N#Cc1ccc2[nH]cc(CCCCN3CCN(c4ccc5oc(C(N)=O)cc5c4)CC3)c2c1` [VILAZODONE], for which the “Bacterial Biotransformation” value in data set [1], in [20], in data set [2], in [4], in [5] and in data set [6] was “Compound metabolized” in each case. Moreover, the “Bacterial Biotransformation” value in [7] is given as “Compound metabolized”; in [8], “Compound metabolized”; in data set [15], “Compound metabolized”; in data set [16] it was “Compound metabolized”; in [17] it was “Compound NOT metabolized”; in data set [9], “Compound metabolized”. Moreover, the “Bacterial Biotransformation” value in data set [10] was “Compound metabolized”; in [11] it was “Compound metabolized”; in data set [12], “Compound metabolized”; in [13] it was “Compound metabolized”; in data set [18] it was “Compound NOT metabolized”; in [19], “Compound metabolized”.

The values above are taken from ChEMBL document CHEMBL5724914, “Linking interpersonal differences in gut microbiota composition and drug biotransformation activity” (2024).
